From patent US10611778B2, “Fused bicyclic inhibitors of menin-MLL interaction” (Janssen Pharmaceutica NV, priority 2016, dated 2020) come the findings set out here.

SMILES strings stand for the structures. Where “and” joins values, the source holds several entries; their conditions need not be identical. Equal values may be shown once. Read-outs that look alike come from different tables or passages of the source.

By IC50 is commonly meant the concentration that gives 50% inhibition.

The subject of assay [1] is MV-4-11. The assay can be described thus: Proliferation assay (spheroid assay) MV-4-11. The class given is cell-based, human. An outline of the steps:
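Cells were grown as spheroids in ultra-low attachment round-bottom wells with compound (0.3% DMSO) for 8 d at 37 °C, imaged every 4 h, with confluence as spheroid size. AUC of confluence versus time (t=0 baseline) was expressed as % of DMSO control, and absolute IC50 came from a least-squares nonlinear fit.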

The subject of assay [2] is K562. The assay can be described thus: Proliferation assay (spheroid assay) K562 control cell line. The following applies: Homo sapiens. The class given is cell-based. As for the experimental part:
(§1) The anti-proliferative effect of menin/MLL protein/protein interaction inhibitor test compounds was assessed in human leukemia cell lines. The cell lines MV-4-11 and MOLM14 harbor MLL translocations and express the MLL fusion proteins MLL-AF4 and MLL-AF9, respectively, as well as the wildtype protein from the second allele. […] K562 and KG1 were used as a control cell lines containing two MLL wildtype alleles in order to exclude compounds that display general cytotoxic effects.
(§2) MV-4-11 and MOLM14 were cultured in RPMI-1640 (Sigma Aldrich) supplemented with 10% fetal bovine serum (HyClone), 2 mM L-glutamine (Sigma Aldrich) and 50 μg/ml gentamycin (Gibco). K562 were propagated in RPMI-1640 (Sigma Aldrich) supplemented with 20% fetal bovine serum (HyClone), 2 mM L-glutamine (Sigma Aldrich) and 50 μg/ml gentamycin (Gibco). KG1 were cultured in Iscove's MDM (Gibco) supplemented with 20% fetal bovine serum (HyClone), 2 mM L-glutamine (Sigma Aldrich) and 50 μg/ml gentamycin (Gibco).
(§3) In order to assess the anti-proliferative effects, 1,500 MV-4-11, 300 MOLM14, 750 K562 or 1,300 KG1 cells were seeded in 200 μl media per well in 96-well round bottom, ultra-low attachment plates (Costar, catalogue number 7007). Cell seeding numbers were chosen based on growth curves to ensure linear growth throughout the experiment. Test compounds were added at different concentrations and the DMSO content was normalized to 0.3%. Cells were incubated for 8 d at 37° C. and 5% CO2. Spheroid like growth was monitored in real-time by live-cell imaging (IncuCyteZOOM, Essenbio, 4× objective) acquiring one image every four hours for 8 d. Confluence (%) as a measure of spheroid size was determined using an integrated analysis tool.
(§4) In order to determine the cumulative effect of the test compounds over time, the area under the curve (AUC) in a plot of confluence against time was calculated. Confluence at the beginning of the experiment (t=0) was used as baseline for the AUC calculation.
(§5) Absolute IC50 values were calculated according to the following procedure: % Control=(AUC sample/AUC control)*100
(§6) AUC control=mean AUC of control values (cells without compound/DMSO as vehicle control)
(§7) A non-linear curve fit was applied using the least squares (ordinary) fit method to the plot of % control versus compound concentration. Based on this, the absolute IC50 value (half maximal inhibitory concentration of the test compound causing an anti-proliferative effect of 50% relative to the vehicle control) was calculated.

The target in assay [3] is T1, Menin/MLL (terbium chelate-labeled menin, FITC-MBM1 peptide) (Homo sapiens, UniProt O00255, T541A).
T1 construct: Menin (a.a. 1-610-6×his tag) was labeled with terbium cryptate as follows
T1 sequence (O00255 with tags, fused parts or gaps T541A): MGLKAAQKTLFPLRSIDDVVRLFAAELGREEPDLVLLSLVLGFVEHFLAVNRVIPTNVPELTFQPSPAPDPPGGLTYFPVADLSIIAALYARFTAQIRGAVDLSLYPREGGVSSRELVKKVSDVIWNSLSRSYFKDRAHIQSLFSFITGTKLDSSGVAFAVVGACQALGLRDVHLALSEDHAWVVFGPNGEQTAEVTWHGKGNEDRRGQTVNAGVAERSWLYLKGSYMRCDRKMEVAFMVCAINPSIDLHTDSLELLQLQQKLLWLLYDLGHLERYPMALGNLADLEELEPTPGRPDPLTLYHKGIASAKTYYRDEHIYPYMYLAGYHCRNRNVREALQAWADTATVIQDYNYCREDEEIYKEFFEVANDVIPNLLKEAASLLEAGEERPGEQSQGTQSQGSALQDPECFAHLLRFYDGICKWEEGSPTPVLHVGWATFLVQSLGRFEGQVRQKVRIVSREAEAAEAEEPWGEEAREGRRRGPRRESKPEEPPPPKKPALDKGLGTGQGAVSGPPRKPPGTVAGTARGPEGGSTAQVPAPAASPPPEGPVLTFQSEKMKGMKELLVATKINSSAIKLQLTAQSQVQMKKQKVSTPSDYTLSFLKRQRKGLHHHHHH
The experiment in a line: Menin/MLL homogenous time-resolved fluorescence (HTRF) assay. The class given is binding. In outline: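 Compound preincubated 5 min with terbium-cryptate-labeled menin (aa 1-610, His-tagged; 100 pM final), then 75 nM FITC-MBM1 peptide added, 15 min at ambient temperature; 0.5% DMSO, Tris pH 7.5 buffer. HTRF ratio 520/490 nm; % inhibition vs saturating competitor, IC50 from 11-point three-fold titration from 31 μM.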

For assay [4], the system named is MOLM14. The assay can be described thus: Proliferation assay (spheroid assay) MOLM14. The class given is cell-based, human. The following applies: Homo sapiens. As for the experimental part:
as §1, §2, §3, §4, §5, §6, §7

Assay [5] has as its target T2, Menin/MLL (menin, FITC-MBM1 peptide) (Homo sapiens, UniProt O00255, T541A).
T2 construct: 6xHis (C)
T2 sequence (O00255 with tags, fused parts or gaps T541A): T1 sequence (O00255 with tags, fused parts or gaps T541A)
The assay can be described thus: Menin/MLL fluorescence polarization (FP) assay. The class given is binding. As to conditions: averaged values over all measurements; read-out: Menin FP assay (IC50). As for the experimental part:
Pharmacological Part 1) Menin/MLL Fluorescence Polarization Assay
To a non-surface binding, black 384-well microtiter plate was added 50 nL 160× test compound in DMSO and 4 μL 2× menin in assay buffer (40 mM Tris-HCl, pH 7.5, 50 mM NaCl, 1 mM DTT and 0.001% Tween 20). After incubation of test compound and menin for 10 min at ambient temperature, 4 μL 2×FITC-MBM1 peptide (FITC-β-alanine-SARWRFPARPGT-NH2) in assay buffer was added, the microtiter plate centrifuged at 1000 rpm for 1 min and the assay mixtures incubated for 15 min at ambient temperature. The relative amount of menin: FITC-MBM1 complex present in an assay mixture is determined by measuring the fluorescence polarization (FP) of the FITC label with a BMG Pherastar plate reader (ex. 485 nm/em. 520 nm) at ambient temperature. The final concentrations of reagents in the binding assay are 100 nM menin, 5 nM FITC-MBM1 peptide and 0.625% DMSO in assay buffer. Dose-response titrations of test compounds are conducted using an 11 point, three-fold serial dilution scheme, starting at 31 μM.
Compound potencies were determined by first calculating % inhibition at each compound concentration according to equation 1: % inhibition=((HC−LC)−(FP^compound−LC))/(HC−LC))*100 (Eqn 1)
Where LC and HC are the FP values of the assay in the presence or absence of a saturating concentration of a compound that competes with FITC-MBM1 for binding to menin, and FP^compound is the measured FP value in the presence of the test compound. HC and LC FP values represent an average of at least 16 replicates per plate.
Where Bottom and Top are the lower and upper asymptotes of the dose-response curve, respectively, IC50 is the concentration of compound that yields 50% inhibition of signal and h is the Hill coefficient.

Assay [6] relates to KG1. The assay can be described thus: Proliferation assay (spheroid assay) KG1 control cell line. The class given is cell-based. The following applies: Homo sapiens, KG-1, averaged values over all measurements. As for the experimental part: as §1, §2, §3, §4, §5, §6, §7
[7] abbreviates: K562 control cell line, averaged values over all measurements, read-out: Spheroid assay K562 (IC50).
[8] abbreviates: averaged values over all measurements, read-out: Menin HTRF assay (IC50).
The mark [9] stands for this setting: MOLM-14, MOLM14, averaged values over all measurements, read-out: Spheroid assay MOLM14 (IC50).
[10] abbreviates: Homo sapiens, MV4-11, MV-4-11, averaged values over all measurements, read-out: Spheroid assay MV-4-11 (IC50).

As to `[2H]C([2H])(c1ccccc1)N1CC[C@@H]2CN(c3ncnc4sc(CC(F)(F)F)cc34)CC[C@@H]21` (single isomer, unassigned) [Compound 5], the half-inhibitory concentration (IC50) in assay [1] (MV-4-11, 8 d, individual measurements (not averaged), read-out: (2) Spheroid assay MV-4-11 (IC50 (μM))) was 2.1 µM and > 15 µM; in assay [2] (192 h, K562, 8 d, individual measurements (not averaged), read-out: (2) Spheroid assay K562 (IC50 (μM))), more than 15 µM; in assay [3] (individual measurements (not averaged), read-out: (3) Menin HTRF assay (IC50 (nM))), 9 nM; in assay [4] (MOLM-14, 192 h, MOLM14, 8 d, individual measurements (not averaged), read-out: (2) Spheroid assay MOLM14 (IC50 (μM))), 4.3 µM.

In the case of `Fc1ccccc1CN1CC[C@@H]2CN(c3ncnc4sc(CC(F)(F)F)cc34)CC[C@@H]21` (single isomer, unassigned) [Compound 7], the half-inhibitory concentration (IC50) in assay [2] (setting [7]) is more than 15 µM; in assay [3] (setting [8]), 510 nM; in assay [5] it was 0.63 µM; in assay [4] (setting [9]), 14.6 µM.

As to `CC(C)(C)OC(=O)N1CCC(CN2CC[C@@H]3CN(c4ncnc5sc(CC(F)(F)F)cc45)C[C@@H]3C2)CC1` (single isomer, unassigned) [Compound 20], the IC50 was 0.38 µM in assay [1] (setting [10]), more than 15 µM in assay [2] (setting [7]), 31 nM in assay [3] (setting [8]) and 0.98 µM in assay [4] (setting [9]).

Turning to `Fc1ccc(CN2CC[C@@H]3CN(c4ncnc5sc(CC(F)(F)F)cc45)C[C@@H]3C2)cn1` (single isomer, unassigned) [Compound 37], the IC50 in assay [1] (setting [10]) is 0.48 µM; in assay [3] (setting [8]), 41 nM; in assay [6], more than 15 µM; in assay [4] (setting [9]), 1.3 µM.

On to `Cc1ccc(CN2CC[C@@H]3CN(c4ncnc5sc(CC(F)(F)F)cc45)C[C@@H]3C2)cn1` (single isomer, unassigned) [Compound 40], for which the IC50 came out at 0.26 µM in assay [1] (setting [10]), 25 nM in assay [3] (setting [8]), 8.1 µM in assay [6] and 1.6 µM in assay [4] (setting [9]).

Take `FC(F)(F)Cc1cc2c(N3C[C@H]4CCN(Cc5cccnc5Cl)C[C@H]4C3)ncnc2s1` (single isomer, unassigned) [Compound 41]: the IC50 in assay [1] (setting [10]) was found to be 0.84 µM; in assay [3] (setting [8]), 74 nM; in assay [6] it was 4.5 µM; in assay [4] (setting [9]), 1.2 µM.

For `FC(F)(F)Cc1cc2c(N3C[C@H]4CCN(Cc5ccc(Cl)nc5)C[C@H]4C3)ncnc2s1` (single isomer, unassigned) [Compound 42], the IC50 in assay [1] (setting [10]) was 0.47 µM; in assay [3] (setting [8]) it was 21 nM; in assay [6], more than 15 µM; in assay [4] (setting [9]), 1.6 µM.

Regarding `COc1ccc(CN2CC[C@@H]3CN(c4ncnc5sc(CC(F)(F)F)cc45)C[C@@H]3C2)cn1` (single isomer, unassigned) [Compound 45], the IC50 was 0.28 µM in assay [1] (setting [10]), 16 nM in assay [3] (setting [8]), more than 15 µM in assay [6] and 1.8 µM in assay [4] (setting [9]).

Consider `CCCN1CC[C@@H]2CN(c3ncnc4sc(CC(F)(F)F)cc34)C[C@@H]2C1` (single isomer, unassigned) [Compound 57], for which the IC50 in assay [1] (setting [10]) is 0.59 µM; in assay [3] (setting [8]), 67 nM; in assay [6], more than 15 µM; in assay [4] (setting [9]), 2.1 µM.

Regarding `Cc1ncccc1CN1CC[C@@H]2CN(c3ncnc4sc(CC(F)(F)F)cc34)C[C@@H]2C1` (single isomer, unassigned) [Compound 60], the IC50 in assay [1] (setting [10]) is 0.66 µM; in assay [3] (setting [8]), 95 nM; in assay [6], 1.8 µM; in assay [4] (setting [9]), 0.22 µM.

`COc1cc(CN2CC[C@@H]3CN(c4ncnc5sc(CC(F)(F)F)cc45)C[C@@H]3C2)ccn1` (single isomer, unassigned) [Compound 63]: the IC50 in assay [1] (setting [10]) was found to be 0.65 µM; in assay [3] (setting [8]), 61 nM; in assay [6], 9.5 µM; in assay [4] (setting [9]), 0.8 µM.

With `FC(F)(F)Cc1cc2c(N3C[C@H]4CCN(Cc5ccncc5)C[C@H]4C3)ncnc2s1` (single isomer, unassigned) [Compound 64], the concentration for half-maximal inhibition (IC50) in assay [1] (setting [10]) turned out to be 0.55 µM; in assay [3] (setting [8]), 25 nM; in assay [6], 8.4 µM; in assay [4] (setting [9]), 0.77 µM.

Consider `O=c1ccc(CN2CC[C@@H]3CN(c4ncnc5sc(CC(F)(F)F)cc45)C[C@@H]3C2)c[nH]1` (single isomer, unassigned) [Compound 67], for which the IC50 in assay [1] (setting [10]) was 0.32 µM; in assay [3] (setting [8]) it was 27 nM; in assay [6], more than 15 µM; in assay [4] (setting [9]) it was 3.2 µM.

On to `FC(F)(F)Cc1cc2c(N3C[C@H]4CCN(CC5CCNCC5)C[C@H]4C3)ncnc2s1` (single isomer, unassigned) [Compound 70B], for which the IC50 in assay [1] (setting [10]) was 0.28 µM; in assay [2] (setting [7]), more than 15 µM; in assay [3] (setting [8]), 24 nM; in assay [4] (setting [9]), 2 µM.

On to `FC(F)(F)Cc1cc2c(N3C[C@H]4CCN(CC5CCOC5)C[C@H]4C3)ncnc2s1` (single isomer, unassigned) [Compound 101], for which the IC50 in assay [1] (setting [10]) is 0.41 µM; in assay [3] (setting [8]) it was 28 nM; in assay [6], more than 15 µM.
